PMC6751662, “Pharmacological and functional similarities of the human neuropeptide Y system in C. elegans challenges phylogenetic views on the FLP/NPR system” (Cell Communication and Signaling : CCS, 2019)

Key:
Format in all cases: cell-based, C. elegans
NPR-3 = target: T1, NPR-3 (Caenorhabditis elegans, UniProt P90745); experiment: cAMP reporter gene assay, Gi/o (inhibition of forskolin-induced cAMP), NPR-3; conditions: for cAMP, x-fold of forskolin (mean), NPR-3: 1 µM forskolin set to 1.00, transiently transfected HEK293 cells, mean of at least three independent experiments; for cAMP assay Gi, NPR-3: 4 h, lower = higher Gi/o activity, transfected HEK293, CRE-luciferase, mean of >=3 independent experiments
T1 construct: expressed in transfected cells; host or cells: HEK293
T1 sequence (P90745 1-376): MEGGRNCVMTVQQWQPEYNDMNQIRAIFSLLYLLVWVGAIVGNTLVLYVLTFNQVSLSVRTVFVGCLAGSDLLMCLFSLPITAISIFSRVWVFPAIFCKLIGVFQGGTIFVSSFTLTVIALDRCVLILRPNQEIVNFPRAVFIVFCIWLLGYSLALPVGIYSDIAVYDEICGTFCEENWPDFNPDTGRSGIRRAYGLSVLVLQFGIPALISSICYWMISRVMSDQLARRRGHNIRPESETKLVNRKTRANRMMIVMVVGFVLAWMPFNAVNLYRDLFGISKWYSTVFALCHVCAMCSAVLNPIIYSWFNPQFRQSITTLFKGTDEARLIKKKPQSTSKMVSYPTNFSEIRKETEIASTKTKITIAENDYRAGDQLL
Experimental: (§1) Activation of Gs and Gi/o was assessed with a cAMP reporter gene assay. HEK293 cells grown to 70–80% confluency in 6-well plates were transiently co-transfected with vectors encoding the receptor and the cAMP reporter gene plasmid pGL4.29 [luc2P/CRE/Hygro] (Promega; 4 μg total, 1:1 ratio) using Metafectene Pro (3 μl/μg DNA; Biontex) following the manufacturer’s instructions. 16 h post transfection, the cells were seeded into white 384-well plates at a density of 20,000 cells/well. On the next day, the medium was removed and the cells were stimulated with 20 μl of peptide solution (or forskolin as positive control) in serum-free DMEM for 4 h. For measuring Gi/o activity, the peptide solutions additionally contained 1 μM forskolin to elevate cellular cAMP levels. After incubation, the luciferase substrate OneGlo in lysis buffer (Promega) was added and the luminescence was measured in a microplate reader Tecan Spark (Tecan). Data were analyzed with GraphPad Prism 5.03 and are shown as fold of basal or fold of forskolin in case of Gαi/o activity.
(§2) For in vitro activation, data is presented as mean ± SEM of at least three independent experiments conducted in technical triplicate. […] For the C. elegans NPRs, we considered the strongest response elicited by any of the peptides downstream of a particular receptor as the receptor’s maximal signal. This may or may not be the biological maximum that can be reached by the ‘true’ endogenous agonist. For the human receptors, the response to the established endogenous agonist reflected the maximal signal.

NPR-4b = target: T2, NPR-4b (Caenorhabditis elegans, UniProt A0A078BTK0); experiment: cAMP reporter gene assay, Gi/o (inhibition of forskolin-induced cAMP), NPR-4b; conditions: for cAMP, x-fold of forskolin (mean), NPR-4b: 1 µM forskolin set to 1.00, transiently transfected HEK293 cells, mean of at least three independent experiments; for cAMP assay Gi, NPR-4b: 4 h, lower = higher Gi/o activity, transfected HEK293, CRE-luciferase, mean of >=3 independent experiments
T2 sequence (A0A078BTK0 1-376): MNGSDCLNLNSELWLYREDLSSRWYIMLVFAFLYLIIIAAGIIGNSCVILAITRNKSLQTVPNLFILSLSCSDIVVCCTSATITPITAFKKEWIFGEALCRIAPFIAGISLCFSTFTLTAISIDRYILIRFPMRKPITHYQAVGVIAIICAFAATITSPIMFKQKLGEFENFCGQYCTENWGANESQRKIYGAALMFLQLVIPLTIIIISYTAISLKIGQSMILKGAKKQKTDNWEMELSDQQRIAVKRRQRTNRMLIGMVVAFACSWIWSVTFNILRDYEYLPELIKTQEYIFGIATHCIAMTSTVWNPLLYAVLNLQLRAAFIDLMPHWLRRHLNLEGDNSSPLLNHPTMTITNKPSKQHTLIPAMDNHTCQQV
Experimental: as §1, with “(Tecan).” for “(Tecan). Data were analyzed with GraphPad Prism 5.03 and are shown as fold of basal or fold of forskolin in case of Gαi/o activity.”
as §2

NPR-11 = target: T3, NPR-11 (Caenorhabditis elegans, UniProt Q18179); experiment: cAMP reporter gene assay, Gi/o (inhibition of forskolin-induced cAMP), NPR-11; conditions: for cAMP, x-fold of forskolin (mean), NPR-11: 1 µM forskolin set to 1.00, transiently transfected HEK293 cells, mean of at least three independent experiments; for cAMP assay Gi, NPR-11: 4 h, lower = higher Gi/o activity, transfected HEK293, CRE-luciferase, mean of >=3 independent experiments
T3 construct: expressed in transfected cells; host or cells: HEK293, transient
T3 sequence (Q18179 1-402): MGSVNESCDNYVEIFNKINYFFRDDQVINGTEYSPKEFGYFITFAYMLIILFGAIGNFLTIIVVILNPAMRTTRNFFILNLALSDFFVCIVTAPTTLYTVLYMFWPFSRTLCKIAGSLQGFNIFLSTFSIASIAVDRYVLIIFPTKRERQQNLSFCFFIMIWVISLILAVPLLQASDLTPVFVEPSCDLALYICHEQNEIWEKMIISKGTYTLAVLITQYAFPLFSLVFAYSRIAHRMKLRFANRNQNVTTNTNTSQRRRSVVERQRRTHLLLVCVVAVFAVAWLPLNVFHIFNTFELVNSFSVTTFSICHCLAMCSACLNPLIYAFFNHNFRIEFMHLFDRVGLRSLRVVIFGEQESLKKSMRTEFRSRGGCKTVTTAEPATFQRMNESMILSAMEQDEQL
Experimental: as §1, §2

NPR-1 = target: T4, NPR-1 (Caenorhabditis elegans, UniProt Q18534); experiment: cAMP reporter gene assay, Gi/o (inhibition of forskolin-induced cAMP), NPR-1; parameters: host or cells: HEK293; conditions: lower = higher Gi/o activity; for cAMP, x-fold of forskolin (mean), NPR-1: inhibition of cAMP production induced by 1 µM forskolin (set to 1.00), transiently transfected HEK293 cells, mean of at least three independent experiments; for cAMP assay Gi, NPR-1: 4 h, transfected HEK293, CRE-luciferase, mean of >=3 independent experiments
T4 sequence (Q18534 1-457): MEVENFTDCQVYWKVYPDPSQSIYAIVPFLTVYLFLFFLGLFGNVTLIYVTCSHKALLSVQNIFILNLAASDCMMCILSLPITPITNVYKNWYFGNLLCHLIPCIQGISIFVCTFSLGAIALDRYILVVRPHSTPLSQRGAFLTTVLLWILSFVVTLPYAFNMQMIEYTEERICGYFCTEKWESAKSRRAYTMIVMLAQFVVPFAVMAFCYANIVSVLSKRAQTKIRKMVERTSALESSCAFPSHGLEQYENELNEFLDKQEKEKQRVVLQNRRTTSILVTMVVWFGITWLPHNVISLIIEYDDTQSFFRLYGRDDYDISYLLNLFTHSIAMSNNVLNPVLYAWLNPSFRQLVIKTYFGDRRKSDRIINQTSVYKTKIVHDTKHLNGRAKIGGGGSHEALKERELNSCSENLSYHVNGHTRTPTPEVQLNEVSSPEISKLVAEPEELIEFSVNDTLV
Experimental: as §1, §2

[1] = 0.1 µM peptide + 1 µM forskolin (set to 1.00)
[2] = 10 µM peptide + 1 µM forskolin (set to 1.00)

Row | cAMP, x-fold of forskolin (mean), NPR-3 (NPR-3; 0.1 µM peptide) | cAMP, x-fold of forskolin (mean), NPR-3 (NPR-3; 10 µM peptide) | cAMP, x-fold of forskolin (mean), NPR-4b (NPR-4b; 0.1 µM peptide) | cAMP, x-fold of forskolin (mean), NPR-4b (NPR-4b; 10 µM peptide) | cAMP, x-fold of forskolin (mean), NPR-11 (NPR-11; 0.1 µM peptide) | cAMP, x-fold of forskolin (mean), NPR-11 (NPR-11; 10 µM peptide) | cAMP, x-fold of forskolin (mean), NPR-1 (NPR-1; 0.1 µM peptide) | cAMP, x-fold of forskolin (mean), NPR-1 (NPR-1; 10 µM peptide) | cAMP assay Gi, NPR-3 (NPR-3; [1]) | cAMP assay Gi, NPR-3 (NPR-3; [2]) | cAMP assay Gi, NPR-4b (NPR-4b; [1]) | cAMP assay Gi, NPR-4b (NPR-4b; [2]) | cAMP assay Gi, NPR-11 (NPR-11; [1]) | cAMP assay Gi, NPR-11 (NPR-11; [2]) | cAMP assay Gi, NPR-1 (NPR-1; [1]) | cAMP assay Gi, NPR-1 (NPR-1; [2]) | Substance
1 | 0.90 x-fold of forskolin | 0.97 x-fold of forskolin | 0.89 x-fold of forskolin | 0.34 x-fold of forskolin | 0.14 x-fold of forskolin | 0.06 x-fold of forskolin | 1.17 x-fold of forskolin | 0.84 x-fold of forskolin | – | – | – | – | – | – | – | – | TSGPLGNLAEELNGYSRKKGGFSFRF-NH2 [QRFP26, human pyroglutamylated RFamide peptide, 26 residues, reference compound]
2 | 1.00 x-fold of forskolin | 1.23 x-fold of forskolin | 1.10 x-fold of forskolin | 0.67 x-fold of forskolin | 0.90 x-fold of forskolin | 0.65 x-fold of forskolin | 1.14 x-fold of forskolin | 1.45 x-fold of forskolin | – | – | – | – | – | – | – | – | TPDINPAWYASRGIRPVGRF-NH2 [PrRP20, human prolactin-releasing peptide, 20 residues, reference compound]
3 | 0.84 x-fold of forskolin | 1.15 x-fold of forskolin | 1.07 x-fold of forskolin | 0.57 x-fold of forskolin | 0.71 x-fold of forskolin | 0.20 x-fold of forskolin | 0.91 x-fold of forskolin | 0.71 x-fold of forskolin | – | – | – | – | – | – | – | – | EASAFGDIIGELKGKGLGGRMRF-NH2 [FLP-27, NPY-like C. elegans FLP with C-terminal RxRF/Ya signature]
4 | 0.66 x-fold of forskolin | 0.86 x-fold of forskolin | 0.73 x-fold of forskolin | 0.36 x-fold of forskolin | 0.94 x-fold of forskolin | 0.48 x-fold of forskolin | 0.54 x-fold of forskolin | 0.50 x-fold of forskolin | 0.68 x-fold of forskolin | 0.87 x-fold of forskolin | 0.75 x-fold of forskolin | 0.40 x-fold of forskolin | 0.94 x-fold of forskolin | 0.51 x-fold of forskolin | 0.58 x-fold of forskolin | 0.53 x-fold of forskolin | APKPKFIRF-NH2 [FLP-5-1, C. elegans FMRFamide-like peptide, C-terminally amidated, synthesized by SPPS]
